Target: T1, DHS (deoxyhypusine synthase) from Ixodes ricinus (Ixodes ricinus, UniProt A0A0K8RJK0)
T1 construct: cDNA from salivary gland RNA; pET-28a(+) N-terminal His tag/thrombin/T7 tag, removal not mentioned; E. coli BL21(DE3), Ni-NTA native purification
T1 sequence (A0A0K8RJK0 1-365): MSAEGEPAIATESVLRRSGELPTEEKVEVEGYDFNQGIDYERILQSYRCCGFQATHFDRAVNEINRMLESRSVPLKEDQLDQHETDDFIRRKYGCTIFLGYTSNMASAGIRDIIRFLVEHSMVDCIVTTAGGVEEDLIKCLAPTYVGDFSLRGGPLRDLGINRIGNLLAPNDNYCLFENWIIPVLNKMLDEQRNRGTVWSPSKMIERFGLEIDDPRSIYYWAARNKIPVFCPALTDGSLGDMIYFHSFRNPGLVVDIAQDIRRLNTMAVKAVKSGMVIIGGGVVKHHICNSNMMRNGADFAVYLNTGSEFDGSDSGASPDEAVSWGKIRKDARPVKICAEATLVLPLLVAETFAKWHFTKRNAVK
Experiment: DHS activity assay, GC/MS detection of deoxyhypusine
Type: biochemical
Details: 2.1 mM spermidine, co-substrate human eIF5A precursor 40 μg, 3 mM NAD, glycine NaOH buffer, 37 °C, 1 h; specific activity only

SMILES: NCCCCNCCCN [spermidine]
- DHS activity assay, GC/MS detection of deoxyhypusine: No DHS activity was detected in control experiments without either the precursor protein
